Reference: patent US20010055590A1, “Method for enhancing myoblast migration and invasion in the context of gene therapy” (priority 1999, published 2001)

Key:
Format in all cases: cell-based
[1] = tested on: MMP-1; assay: Gelatin zymography of mouse myoblast culture medium, MMP-1; conditions: mouse myoblasts
Description: Gelatin zymography for assaying MMPs was carried out as previously described (Guerin and Holland “Synthesis and secretion of matrix-degrading metalloproteinases by human skeletal muscle satellite cells” Devel. Dynamics 202:91-99,1995) with minor modifications. Briefly, myoblasts were grown in 6 cm tissue culture plates to approximately 70% confluence, then rinsed three times with serumfree DMEM and incubated for 3 hours in DMEM containing 0.2% BSA to eliminate the effects of serum. Growth factors were added and cells were incubated for 24 hours. Culture medium was then collected, centrifuged to pellet detached cells, and concentrated ten-to twenty-fold using the Centricon-10 (Amicon, Beverly, Mass.) system. The protein concentration of the supernatants was determined using the Bio-Rad protein microassay system with BSA used as the standard. Samples were stored at −70° C. until use. For gelatin zymography, aliquots (10 μg as the total protein per sample) were electrophoresed at constant voltage on a 10% polyacrylamide gel containing 2 mg/ml gelatin. […] Proteinase activity was quantified by densitometric scanning of bands using a Bio-Rad Gel Doc 1000 video camera imaging system (Bio Rad, Hercules, Calif.). […]

[2] = tested on: human myoblasts; assay: In vitro human myoblast invasion of Matrigel; conditions: 24 hour time point
Description: Mouse myoblasts were previously isolated from hind limb muscles of 4-6 week old severe combined immunodeficient (SCID) mice and clonally purified from contaminating fibroblasts (Yao et al. “Primary myoblast-mediated gene: transfer: persistent expression of human factor IX in mice” Gene Therapy 1:99-107, 1994). Myoblasts (approximately 1×10^6 cells) were plated on 6 cm tissue culture plates coated with 0.5% gelatin (Sigma, St. Louis, Mo.) and grown in growth medium consisting of Dulbecco's Modified Eagle Medium (DMEM) (Gibco BRL, Gaithersburg Md.) supplemented with 20% fetal bovine serum (FBS; Gibco) and 0.5% chick embryo extract (CEE; Gibco). All animal studies were carried out following the institutional guidelines for ethical animal use. Human myoblasts were isolated using trypsin digestion from abdominal wall or chest wall muscle biopsies, and surgery. […] Myoblast migration and invasion were examined using a commercially available in vitro cell migration and invasion assay kit (Biocoat, Becton Dickinson, Franklin Lakes, N.J.) as described by Albini et al. (A rapid in vitro assay for quantitating the invasive potential of tumor cells Cancer Res 47:3239-3245, 1987). […] The number of cells per field was counted in 10 randomly selected fields and averaged for each condition. […]

[3] = tested on: MMP-9; assay: Gelatin zymography of human myoblasts, MMP-9
Description: Briefly, myoblasts were grown in 6 cm tissue culture plates to approximately 70% confluence, then rinsed three times with serumfree DMEM and incubated for 3 hours in DMEM containing 0.2% BSA to eliminate the effects of serum. Growth factors were added and cells were incubated for 24 hours. Culture medium was then collected, centrifuged to pellet detached cells, and concentrated ten-to twenty-fold using the Centricon-10 (Amicon, Beverly, Mass.) system. The protein concentration of the supernatants was determined using the Bio-Rad protein microassay system with BSA used as the standard. Samples were stored at −70° C. until use. For gelatin zymography, aliquots (10 μg as the total protein per sample) were electrophoresed at constant voltage on a 10% polyacrylamide gel containing 2 mg/ml gelatin. The gel was rinsed three times for 15 min in 2.5% Triton-X 100 to remove SDS and renature the proteins, then incubated in MMP activation buffer (0.05 M Tris-HCl, pH 7.5 with 5 mM CaCl2) for 24 hours at 37° C. with constant shaking. Gels were stained overnight in 0.5% Coomassie blue R-250, and destained for 1 hour in 40% methanol: 10% acetic acid. Proteinase activity was quantified by densitometric scanning of bands using a Bio-Rad Gel Doc 1000 video camera imaging system (Bio Rad, Hercules, Calif.).

Substance | MMP-1 expression (57 kDa) [1] | stimulation of human myoblast invasion of Matrigel over the BSA control [2] | effect on MMP-9 expression (92 kDa band) [3]
human serum fibronectin | does not significantly affect | 2.3 fold | 
bovine basic fibroblast growth factor [bFGF] |  |  | only marginal increases in MMP-9 expression
